“And” between values parts separate entries of the source, which are not always exact repeats. Equal values may be shown once. Inconclusive results and toxic doses are left out. How the source made its calls: active means survival T/C of 150% or more; inactive means T/C below 125% in these data.
Test system: BDF1 mice, P388 leukemia ip, median survival T/C
Test: NCI In Vivo Anticancer Drug Screen. Data for tumor model P388 Leukemia (intraperitoneal) in B6D2F1 (BDF1) mice
Conditions: endpoint: median survival time, higher = longer survival
Outline: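 Vehicle-dosed animals serve as the reference; survival of compound-dosed, tumour-implanted mice is divided by it.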

[1] = dose: 25.0 mg/kg/injection, schedule: Q01DX009 (ip), vehicle: Klucel (hydroxypropylcellulose) (HPC)
[2] = dose: 50.0 mg/kg/injection, schedule: Q01DX009 (ip), vehicle: Klucel (hydroxypropylcellulose) (HPC)
[3] = dose: 100.0 mg/kg/injection, schedule: Q01DX009 (ip), vehicle: saline with Tween-80

Measured: T/C

COc1cc(C[C@H]2c3cc(OC)c(OC)cc3CCN2C)c(Oc2cc3c(cc2OC)-c2c(OC)c(OC)cc4c2[C@H](C3)N(C)CC4)cc1OC
inactive: dose: 9.0 mg/kg/injection, schedule: Q01DX010 (ip), vehicle: other 90 % of control | dose: 12.0 mg/kg/injection, schedule: Q01DX005 (ip), vehicle: other 95 % of control | dose: 12.0 mg/kg/injection, schedule: Q01DX010 (ip), vehicle: other 100 % of control | dose: 12.5 mg/kg/injection, schedule: Q01DX010 (ip), vehicle: other 109 % of control | dose: 18.0 mg/kg/injection, schedule: Q04DX003 (ip), vehicle: other 95 % of control | dose: 18.75 mg/kg/injection, schedule: Q01DX010 (ip), vehicle: other 118 % of control | dose: 24.0 mg/kg/injection, schedule: Q01DX005 (ip), vehicle: other 90 % of control | dose: 24.0 mg/kg/injection, schedule: Q01DX010 (ip), vehicle: other 104 % of control | dose: 25.0 mg/kg/injection, schedule: Q01DX010 (ip), vehicle: acetone 104 % of control | dose: 25.0 mg/kg/injection, schedule: Q01DX010 (ip), vehicle: other 104 % of control | dose: 27.0 mg/kg/injection, schedule: Q08DX002 (ip), vehicle: other 100 % of control | dose: 36.0 mg/kg/injection, schedule: Q04DX003 (ip), vehicle: other 90 % of control | dose: 37.5 mg/kg/injection, schedule: Q01DX010 (ip), vehicle: carboxymethylcellulose (CMC) 100 % of control | dose: 37.5 mg/kg/injection, schedule: Q01DX010 (ip), vehicle: other 104 % of control | dose: 48.0 mg/kg/injection, schedule: Q01DX005 (ip), vehicle: other 100 % of control | dose: 48.0 mg/kg/injection, schedule: Q01DX010 (ip), vehicle: other 104 % of control | dose: 50.0 mg/kg/injection, schedule: Q01DX010 (ip), vehicle: acetone 109 % of control | dose: 50.0 mg/kg/injection, schedule: Q01DX010 (ip), vehicle: clinical formulation 109 % of control | dose: 50.0 mg/kg/injection, schedule: Q01DX010 (ip), vehicle: other 120 % of control | dose: 54.0 mg/kg/injection, schedule: Q08DX002 (ip), vehicle: other 95 % of control | dose: 72.0 mg/kg/injection, schedule: Q04DX003 (ip), vehicle: other 100 % of control | dose: 75.0 mg/kg/injection, schedule: Q01DX010 (ip), vehicle: carboxymethylcellulose (CMC) 100 % of control | dose: 96.0 mg/kg/injection, schedule: Q01DX005 (ip), vehicle: other 100 % of control | dose: 96.0 mg/kg/injection, schedule: Q01DX010 (ip), vehicle: other 109 % of control | dose: 100.0 mg/kg/injection, schedule: Q01DX001 (ip), vehicle: carboxymethylcellulose (CMC) 110 % of control | dose: 100.0 mg/kg/injection, schedule: Q01DX010 (ip), vehicle: acetone 113 % of control | dose: 100.0 mg/kg/injection, schedule: Q01DX010 (ip), vehicle: other 120 % of control | dose: 100.0 mg/kg/injection, schedule: Q04DX002 (ip), vehicle: Klucel (hydroxypropylcellulose) (HPC) 100 % of control | dose: 108.0 mg/kg/injection, schedule: Q08DX002 (ip), vehicle: other 100 % of control | dose: 150.0 mg/kg/injection, schedule: Q01DX010 (ip), vehicle: carboxymethylcellulose (CMC) 105 % of control | dose: 200.0 mg/kg/injection, schedule: Q01DX001 (ip), vehicle: carboxymethylcellulose (CMC) 105 % of control | dose: 200.0 mg/kg/injection, schedule: Q01DX010 (ip), vehicle: other 100 % of control | dose: 200.0 mg/kg/injection, schedule: Q04DX002 (ip), vehicle: Klucel (hydroxypropylcellulose) (HPC) 91 % of control | dose: 216.0 mg/kg/injection, schedule: Q08DX002 (ip), vehicle: other 100 % of control | dose: 400.0 mg/kg/injection, schedule: Q01DX001 (ip), vehicle: carboxymethylcellulose (CMC) 110 % of control | dose: 400.0 mg/kg/injection, schedule: Q04DX002 (ip), vehicle: Klucel (hydroxypropylcellulose) (HPC) 100 % of control

COc1ccc(O)c(/C=C/c2cc[n+](C)cc2)c1
inactive: dose: 100.0 mg/kg/injection, schedule: Q04DX002 (ip), vehicle: saline with Tween-80 91 % of control | dose: 200.0 mg/kg/injection, schedule: Q04DX002 (ip), vehicle: saline with Tween-80 97 % of control

NC1CCC(CCCC2CCCC2)CC1 (stereo not drawn)
inactive: [1] 101 % of control | [2] 110 % of control

O=S1(=O)CC(S(=O)(=O)c2ccccc2)C1
inactive: dose: 100.0 mg/kg/injection, schedule: Q01DX001 (ip), vehicle: saline with Tween-80 99 % of control | dose: 200.0 mg/kg/injection, schedule: Q01DX001 (ip), vehicle: saline with Tween-80 103 % of control | dose: 400.0 mg/kg/injection, schedule: Q01DX001 (ip), vehicle: saline with Tween-80 100 % of control

CC(=O)CC(=O)Nc1nc2ccccc2s1
inactive: dose: 50.0 mg/kg/injection, schedule: Q01DX009 (ip), vehicle: saline 94 % of control | dose: 200.0 mg/kg/injection, schedule: Q01DX009 (ip), vehicle: saline 105 % of control

O=[N+]([O-])c1ccc(Nc2ccc(Cl)c(Cl)c2)c2c1no[n+]2[O-]
inactive: dose: 17.5 mg/kg/injection, schedule: Q01DX009 (ip), vehicle: saline with Tween-80 88 % of control | dose: 35.0 mg/kg/injection, schedule: Q01DX009 (ip), vehicle: saline with Tween-80 92 % of control | dose: 70.0 mg/kg/injection, schedule: Q01DX009 (ip), vehicle: saline with Tween-80 88 % of control

NC(=O)c1cn[nH]c1N
inactive: dose: 12.5 mg/kg/injection, schedule: Q01DX009 (ip), vehicle: Klucel (hydroxypropylcellulose) (HPC) 95 % of control | [1] 87 % of control | [2] 91 % of control | dose: 100.0 mg/kg/injection, schedule: Q04DX003 (ip), vehicle: Klucel (hydroxypropylcellulose) (HPC) 104 % of control | dose: 200.0 mg/kg/injection, schedule: Q04DX003 (ip), vehicle: Klucel (hydroxypropylcellulose) (HPC) 100 % of control | dose: 400.0 mg/kg/injection, schedule: Q04DX003 (ip), vehicle: Klucel (hydroxypropylcellulose) (HPC) 113 % of control

[NH-]C(CO)C(=O)O.[NH-]C(CO)C(=O)O.[Pd+2] (stereo not drawn)
inactive: dose: 12.5 mg/kg/injection, schedule: Q01DX009 (ip), vehicle: water 106 % of control

CC(=O)Nc1ccc(/C=C\c2ccnc3ccccc23)cc1
inactive: dose: 33.3 mg/kg/injection, schedule: Q04DX002 (ip), vehicle: saline with Tween-80 111 % of control | dose: 50.0 mg/kg/injection, schedule: Q04DX002 (ip), vehicle: saline with Tween-80 107 % of control | dose: 75.0 mg/kg/injection, schedule: Q04DX002 (ip), vehicle: saline with Tween-80 112 % of control

c1ccc(Sc2cccc3ccccc23)cc1
inactive: [3] 100 % of control | dose: 200.0 mg/kg/injection, schedule: Q01DX009 (ip), vehicle: saline with Tween-80 104 % of control | dose: 400.0 mg/kg/injection, schedule: Q01DX009 (ip), vehicle: saline with Tween-80 104 % of control

Cc1nc(Cl)c(C(N)=O)nc1C
inactive: dose: 12.5 mg/kg/injection, schedule: Q01DX009 (ip), vehicle: saline with Tween-80 91 % of control | dose: 25.0 mg/kg/injection, schedule: Q01DX009 (ip), vehicle: saline with Tween-80 88 % of control and 94 % of control | dose: 50.0 mg/kg/injection, schedule: Q01DX009 (ip), vehicle: saline with Tween-80 97 % of control | dose: 50.0 mg/kg/injection, schedule: Q04DX003 (ip), vehicle: saline with Tween-80 113 % of control | [3] 90 % of control and 106 % of control | dose: 100.0 mg/kg/injection, schedule: Q04DX003 (ip), vehicle: saline with Tween-80 96 % of control | dose: 150.0 mg/kg/injection, schedule: Q01DX009 (ip), vehicle: saline with Tween-80 97 % of control | dose: 200.0 mg/kg/injection, schedule: Q04DX003 (ip), vehicle: saline with Tween-80 92 % of control | dose: 400.0 mg/kg/injection, schedule: Q04DX003 (ip), vehicle: saline with Tween-80 99 % of control

CCc1ccccc1OS(=O)(=O)c1ccc([N+](=O)[O-])cc1
inactive: dose: 100.0 mg/kg/injection, schedule: Q01DX009 (ip), vehicle: saline sonified 88 % of control | dose: 200.0 mg/kg/injection, schedule: Q01DX009 (ip), vehicle: saline sonified 88 % of control | dose: 400.0 mg/kg/injection, schedule: Q01DX009 (ip), vehicle: saline sonified 94 % of control

— PubChem BioAssay AID328 (DTP/NCI, 2004)
